Results published in patent US11034666B2, “Anti-inflammatory and antitumor 2-oxothiazoles and 2-oxothiophenes compounds” (Avexxin AS, priority 2013, dated 2021).
Several values for one entry are separate records, joined by “and”; a condition that tells them apart may be missing. Identical values can stand only once. Like-named read-outs stand apart in the source and are kept apart here.

Key:
human GIVA cPLA2 [1] = target: T1, human GIVA cPLA2 (Homo sapiens, UniProt P47712); test: In vitro mixed micelle assay, GIVA cPLA2; format: biochemical; conditions: for inhibition of GIVA cPLA2 (in words): mixed micelle assay, comment on Table 6; for inhibition at 0.091 mole fraction: 0.091 mole fraction of inhibitor, read-out: GIVA cPLA2 % Inhib
T1 sequence (P47712 1-749): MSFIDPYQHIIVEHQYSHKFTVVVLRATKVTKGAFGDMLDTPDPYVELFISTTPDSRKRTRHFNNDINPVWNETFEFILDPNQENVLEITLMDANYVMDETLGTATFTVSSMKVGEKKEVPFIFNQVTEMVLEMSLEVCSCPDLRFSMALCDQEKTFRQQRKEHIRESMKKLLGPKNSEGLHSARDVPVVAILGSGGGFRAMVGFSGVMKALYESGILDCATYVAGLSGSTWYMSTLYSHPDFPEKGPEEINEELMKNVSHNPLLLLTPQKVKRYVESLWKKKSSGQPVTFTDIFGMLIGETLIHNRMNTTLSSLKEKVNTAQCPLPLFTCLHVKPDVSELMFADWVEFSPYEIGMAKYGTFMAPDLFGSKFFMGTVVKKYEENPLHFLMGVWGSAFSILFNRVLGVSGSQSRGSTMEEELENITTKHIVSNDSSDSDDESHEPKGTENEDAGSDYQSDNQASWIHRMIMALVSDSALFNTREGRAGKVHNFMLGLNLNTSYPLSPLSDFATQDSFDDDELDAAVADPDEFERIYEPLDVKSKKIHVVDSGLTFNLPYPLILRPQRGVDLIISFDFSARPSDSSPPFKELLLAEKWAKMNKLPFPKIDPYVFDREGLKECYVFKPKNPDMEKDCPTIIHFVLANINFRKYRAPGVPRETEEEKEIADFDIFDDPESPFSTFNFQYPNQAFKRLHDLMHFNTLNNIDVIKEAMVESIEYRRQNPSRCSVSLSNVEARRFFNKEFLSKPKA
Description: At first, the percent of inhibition for each PLA2 enzyme at 0.091 mole fraction of each inhibitor was determined. […] The XI(50) is the mole fraction of the inhibitor in the total substrate interface required to inhibit the enzyme activity by 50%. […] (ii) GVI iPLA2 substrate mixed-micelles were composed of 400 μM Triton X-100, 98.3 μM PAPC, and 1.7 μM ^14C-labeled PAPC in buffer containing 100 mM HEPES, pH 7.5, 2 mM ATP, and 4 mM DTT; (iii) GV sPLA2 substrate mixed-micelles were composed of 400 μM Triton X-100, 98.3 μM PAPC, and 1.7 μM ^14C-labeled PAPC in buffer containing 50 mMTris, pH 8.0, and 5 mM […] CaCl2.

human GIVA cPLA2 [2] = target: T1, human GIVA cPLA2; test: In vitro vesicle assay, cPLA2; format: biochemical
Description: The effect of the oxothiazoles synthesized on GIVA cPLA2 was measured in vesicles as previously described^51,52 with modifications.^53 The results are presented in Table 6 and are in full agreement with those using the micellar assay. […] From both assays, it is clear that the introduction of the ethyl ester group directly on the heterocyclic ring substantially increases the potency of inhibition. This group presumably develops additional interactions within the enzyme's active site. Comparing the results obtained in mixed micelles and in vesicles is obvious that Compound A stands out in this series of oxothiazoles
GIVA cPLA2 was measured as described^51,52 with modifications.^53 In short, recombinant human GIVA cPLA2 enzyme was pre-incubated with DMSO (1%) with or without inhibitor in assay buffer (80 sec at 37° C., 10 min at 25° C.). Lipid vesicles of L-α-1-palmitoyl-2-arachidonyl-[arachidonyl-1-^14C]-phosphatidylcholine (4.3 nmol) were dried under a steam of N2 (g). The dried lipid was re-suspended in 2 ml assay buffer and sonicated twice (7 min, output 3.5 and 50% duty cycles, on ice) in a Branson Sonifier 250 (Branson Ultrasonic Corporation, Danbury, Conn.). Sonicated lipid (0.2 μM) was added to the reaction and incubated for 1 h at 37° C. followed by addition of a chloroform/methanol stop buffer to terminate the enzymatic reaction. The reaction mixture was separated by centrifugation (5 min, 1640×g). The lower phase was transferred to a glass tube and dried under a steam of N2 (g), re-suspended in chloroform/methanol (9:1, by volume) and applied to a silica gel. Free [1-^14C]arachidonic acid and, L-α-1-palmitoyl-2-arachidonyl-[arachidonyl-1-^14C]-phosphatidylcholine were separated by thin layer chromatography and analyzed as previously described.^54

PGE2 = test: PGE2-assay (Tables 2 and 4); format: cell-based; conditions: Table 2; head says % inhibition, cells print μM
From the text: Experimental procedures suitable for the formation and testing of these compounds can be found in WO2011/039365 as well as references cited therein.

[3] = % inhibition at 1 μM oxothiazole, read-out: cPLA2 vesicle assay % Inhib
[4] = inhibitors tested in 0-3 μM range, read-out: cPLA2 vesicle assay IC50 (μm)
[5] = tested 0-5 μM, Tables 2 and 4, read-out: cPLA2 in vitro assay (0-5 μM) IC50
[6] = mixed micelles, mole fraction of inhibitor for 50% inhibition, Table 6
[7] = vesicles assay, read-out: IC50 on GIVA cPLA2 in vesicles assay

inhibition at 0.091 mole fraction (human GIVA cPLA2 [1]; mixed micelles, Table 6)	inhibition at 1 µM (human GIVA cPLA2 [2]; [3])	IC50 (human GIVA cPLA2 [2]; [4])	IC50 (human GIVA cPLA2 [2]; [5])	melting point	inhibition at 1 µM (human GIVA cPLA2 [2]; at 1 μM, printed in the IC50 column of Table 2, read-out: cPLA2 in vitro assay, % inh at 1 μM)	Structure (SMILES)	inhibition of GIVA cPLA2 (in words) (human GIVA cPLA2 [1])	GIVA cPLA2 XI(50) (human GIVA cPLA2 [1]; Table 2, mole fraction of inhibitor in the total substrate interface for 50% inhibition)	GIVA cPLA2 % Inhibition (human GIVA cPLA2 [1]; Tables 2 and 4)	GIVA cPLA2 XI(50) (human GIVA cPLA2 [1]; [6])	IC50 (human GIVA cPLA2 [2]; [7])	IC50 (PGE2)
58%	7%	> 3 µM	> 5 µM	74 to 77 °C	–	O=C(COc1ccc(F)cc1)c1nccs1 [Compound C, 2-(4-Fluorophenoxy)-1-(thiazol-2-yl)ethanone]	did not present any interesting inhibition	–	–	–	–	–
> 90%	43%	–	–	–	–	CCCCCCCCc1ccc(OCC(=O)c2nccs2)cc1 [Compound T, 2-(4-Octylphenoxy)-1-(thiazol-2-yl)ethanone]	significant inhibitory activity	–	–	0.02 ± 0.007 mole fraction	1.2 µM	–
80%	26%	> 3 µM	–	130 to 133 °C	35%	O=C(COc1ccc(-c2ccccc2)cc1)c1nccs1 [Compound B, 2-(Biphenyl-4-yloxy)-1-(thiazol-2-yl)ethanone]	did not present any interesting inhibition	–	–	–	–	~6 µM
64%	25%	> 3 µM	–	–	–	CCCCCCCCc1ccc(OCC(=O)c2nc(CC(=O)OCC)cs2)cc1 [Compound Y, Ethyl 2-(2-(2-(4-octylphenoxy)acetyl)thiazol-4-yl)acetate]	dramatic loss of the activity	–	–	–	–	–
49%	0%	–	–	–	–	CCCCCCCCCCCCOCC(=O)c1nc(CC(=O)OCC)cs1 [Compound X, Ethyl 2-(2-(2-(dodecyloxy)acetyl)thiazol-4-yl)acetate]	proved inactive	–	–	–	–	–
40%	26%	> 3 µM	> 5 µM	77 to 79 °C	–	O=C(COc1ccccc1)c1nccs1 [Compound D, 2-Phenoxy-1-(thiazol-2-yl)ethanone]	did not present any interesting inhibition	–	–	–	–	–
48%	21%	> 3 µM	–	–	–	CCCCCCCCCCCCOCC(=O)c1nc(C(=O)OCC)cs1 [Compound W, Ethyl 2-(2-(dodecyloxy)acetyl)thiazole-4-carboxylate]	–	–	–	–	–	–

Structure (SMILES)	inhibition at 0.091 mole fraction (human GIVA cPLA2 [1]; mixed micelles, Table 6)	inhibition at 1 µM (human GIVA cPLA2 [2]; [3])	IC50 (human GIVA cPLA2 [2]; [4])	IC50 (human GIVA cPLA2 [2]; [5])	melting point	inhibition at 1 µM (human GIVA cPLA2 [2]; at 1 μM, printed in the IC50 column of Table 2, read-out: cPLA2 in vitro assay, % inh at 1 μM)	inhibition of GIVA cPLA2 (in words) (human GIVA cPLA2 [1])	GIVA cPLA2 XI(50) (human GIVA cPLA2 [1]; Table 2, mole fraction of inhibitor in the total substrate interface for 50% inhibition)	GIVA cPLA2 % Inhibition (human GIVA cPLA2 [1]; Tables 2 and 4)	GIVA cPLA2 XI(50) (human GIVA cPLA2 [1]; [6])	IC50 (human GIVA cPLA2 [2]; [7])	IC50 (PGE2)
CCCCCCCCc1ccc(OCC(=O)c2nc(C(=O)OC)cs2)cc1 [Compound A, Methyl 2-(2-(4-octylphenoxy)acetyl)thiazole-4-carboxylate]	> 90%	74%	–	~0.3 µM	–	–	–	0.011 mole fraction	>90%	0.011 mole fraction and 0.011 ± 0.005 mole fraction	0.3 µM	~0.75 µM
